Laboratory results reported in ChEMBL document CHEMBL4507268 (2021).

How the values were obtained:
Details in all cases: Compound concentration 1000.0 nM
[1] = molecular target: Ribosomal protein S6 kinase alpha-6 (Homo sapiens) (UniProt Q9UK32)
[2] = molecular target: T1, MAP/microtubule affinity-regulating kinase 4 (Homo sapiens) (UniProt Q96L34)
T1 sequence (whole entry): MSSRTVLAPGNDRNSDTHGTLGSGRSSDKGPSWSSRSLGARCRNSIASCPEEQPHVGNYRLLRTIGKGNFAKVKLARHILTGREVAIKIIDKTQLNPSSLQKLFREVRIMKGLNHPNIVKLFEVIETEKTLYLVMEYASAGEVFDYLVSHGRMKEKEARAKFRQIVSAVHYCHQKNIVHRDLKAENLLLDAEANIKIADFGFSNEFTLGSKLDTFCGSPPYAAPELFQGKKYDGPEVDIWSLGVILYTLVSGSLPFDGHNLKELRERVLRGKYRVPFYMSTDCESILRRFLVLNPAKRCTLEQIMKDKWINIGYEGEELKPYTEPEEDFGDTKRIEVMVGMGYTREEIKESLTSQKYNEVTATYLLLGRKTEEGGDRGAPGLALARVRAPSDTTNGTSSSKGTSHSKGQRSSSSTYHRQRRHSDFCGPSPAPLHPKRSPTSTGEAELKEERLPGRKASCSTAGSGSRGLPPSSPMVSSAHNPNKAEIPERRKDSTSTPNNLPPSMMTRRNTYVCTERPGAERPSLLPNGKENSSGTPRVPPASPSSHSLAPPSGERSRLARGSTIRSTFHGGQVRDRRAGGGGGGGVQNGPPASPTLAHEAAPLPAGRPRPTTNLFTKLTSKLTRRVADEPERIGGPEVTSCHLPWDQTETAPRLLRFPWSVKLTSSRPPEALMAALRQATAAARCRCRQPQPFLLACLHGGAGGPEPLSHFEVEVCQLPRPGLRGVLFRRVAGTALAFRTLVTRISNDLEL

[3] = molecular target: AP2-associated protein kinase 1 (Homo sapiens) (UniProt Q2M2I8)
[4] = tested on: Phosphatidylinositol 4,5-bisphosphate 3-kinase catalytic subunit alpha isoform (Homo sapiens), P42336 [E545A]
[5] = molecular target: Serine/threonine-protein kinase 32C (Homo sapiens) (UniProt Q86UX6)
Chain of Serine/threonine-protein kinase 32C (Homo sapiens) (Q86UX6 whole entry): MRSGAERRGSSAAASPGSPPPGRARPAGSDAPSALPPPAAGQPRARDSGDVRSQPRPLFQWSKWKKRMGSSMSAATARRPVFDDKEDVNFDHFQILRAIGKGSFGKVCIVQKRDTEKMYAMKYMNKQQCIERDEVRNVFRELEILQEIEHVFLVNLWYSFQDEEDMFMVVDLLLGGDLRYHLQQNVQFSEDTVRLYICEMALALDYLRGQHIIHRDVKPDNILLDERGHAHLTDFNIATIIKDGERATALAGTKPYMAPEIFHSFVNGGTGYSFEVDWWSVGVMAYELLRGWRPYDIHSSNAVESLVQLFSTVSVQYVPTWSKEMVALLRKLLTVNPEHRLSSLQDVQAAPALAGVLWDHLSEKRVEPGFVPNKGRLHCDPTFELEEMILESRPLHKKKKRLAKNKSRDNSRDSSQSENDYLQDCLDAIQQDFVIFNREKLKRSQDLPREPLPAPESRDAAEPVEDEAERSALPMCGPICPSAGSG

[6] = molecular target: T2, Interleukin-1 receptor-associated kinase 4 (Homo sapiens) (UniProt Q9NWZ3)
T2 sequence (whole entry): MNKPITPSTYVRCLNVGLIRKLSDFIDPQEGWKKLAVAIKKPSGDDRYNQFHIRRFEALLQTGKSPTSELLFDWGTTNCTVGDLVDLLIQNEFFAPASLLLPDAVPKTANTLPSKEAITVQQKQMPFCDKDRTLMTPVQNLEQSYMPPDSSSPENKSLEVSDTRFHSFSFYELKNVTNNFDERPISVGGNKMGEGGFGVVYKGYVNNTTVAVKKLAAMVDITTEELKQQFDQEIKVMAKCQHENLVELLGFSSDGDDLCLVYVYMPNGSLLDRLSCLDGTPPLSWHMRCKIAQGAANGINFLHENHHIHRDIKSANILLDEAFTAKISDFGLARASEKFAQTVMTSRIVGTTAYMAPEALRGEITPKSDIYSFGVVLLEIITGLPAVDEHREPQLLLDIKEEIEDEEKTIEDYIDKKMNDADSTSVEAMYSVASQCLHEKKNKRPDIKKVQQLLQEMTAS

[7] = molecular target: Death-associated protein kinase 2 (Homo sapiens) (UniProt Q9UIK4)
Chain of Death-associated protein kinase 2 (Homo sapiens) (Q9UIK4 whole entry, looked up): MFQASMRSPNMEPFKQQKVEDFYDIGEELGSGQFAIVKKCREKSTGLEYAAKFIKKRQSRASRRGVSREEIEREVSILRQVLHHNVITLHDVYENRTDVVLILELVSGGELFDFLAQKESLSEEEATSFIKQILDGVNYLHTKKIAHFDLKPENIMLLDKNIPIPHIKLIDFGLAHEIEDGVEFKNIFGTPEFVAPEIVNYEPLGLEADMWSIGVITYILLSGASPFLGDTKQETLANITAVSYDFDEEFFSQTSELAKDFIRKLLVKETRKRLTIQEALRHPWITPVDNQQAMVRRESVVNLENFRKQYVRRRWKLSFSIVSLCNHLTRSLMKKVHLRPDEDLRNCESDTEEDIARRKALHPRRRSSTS

[8] = molecular target: Mitogen-activated protein kinase 14 (Homo sapiens) (UniProt Q16539)
[9] = molecular target: Dual specificity mitogen-activated protein kinase kinase 5 (Homo sapiens) (UniProt Q13163)
Chain of Dual specificity mitogen-activated protein kinase kinase 5 (Homo sapiens) (Q13163 whole entry): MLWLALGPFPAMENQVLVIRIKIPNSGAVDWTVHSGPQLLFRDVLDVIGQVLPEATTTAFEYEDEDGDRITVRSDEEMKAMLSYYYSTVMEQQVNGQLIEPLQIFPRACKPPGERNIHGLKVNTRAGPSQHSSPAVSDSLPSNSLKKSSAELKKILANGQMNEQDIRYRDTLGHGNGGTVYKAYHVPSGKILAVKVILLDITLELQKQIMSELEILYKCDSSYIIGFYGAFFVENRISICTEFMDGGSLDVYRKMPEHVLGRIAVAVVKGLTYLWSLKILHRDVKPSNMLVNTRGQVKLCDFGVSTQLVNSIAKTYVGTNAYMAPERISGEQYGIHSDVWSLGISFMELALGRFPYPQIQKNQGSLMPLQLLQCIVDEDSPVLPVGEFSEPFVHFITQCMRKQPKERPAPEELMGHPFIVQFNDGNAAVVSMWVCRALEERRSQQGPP

[10] = molecular target: Mitogen-activated protein kinase kinase kinase 12 (Homo sapiens) (UniProt Q12852)
Chain of Mitogen-activated protein kinase kinase kinase 12 (Homo sapiens) (Q12852 whole entry, the tested form may be a part): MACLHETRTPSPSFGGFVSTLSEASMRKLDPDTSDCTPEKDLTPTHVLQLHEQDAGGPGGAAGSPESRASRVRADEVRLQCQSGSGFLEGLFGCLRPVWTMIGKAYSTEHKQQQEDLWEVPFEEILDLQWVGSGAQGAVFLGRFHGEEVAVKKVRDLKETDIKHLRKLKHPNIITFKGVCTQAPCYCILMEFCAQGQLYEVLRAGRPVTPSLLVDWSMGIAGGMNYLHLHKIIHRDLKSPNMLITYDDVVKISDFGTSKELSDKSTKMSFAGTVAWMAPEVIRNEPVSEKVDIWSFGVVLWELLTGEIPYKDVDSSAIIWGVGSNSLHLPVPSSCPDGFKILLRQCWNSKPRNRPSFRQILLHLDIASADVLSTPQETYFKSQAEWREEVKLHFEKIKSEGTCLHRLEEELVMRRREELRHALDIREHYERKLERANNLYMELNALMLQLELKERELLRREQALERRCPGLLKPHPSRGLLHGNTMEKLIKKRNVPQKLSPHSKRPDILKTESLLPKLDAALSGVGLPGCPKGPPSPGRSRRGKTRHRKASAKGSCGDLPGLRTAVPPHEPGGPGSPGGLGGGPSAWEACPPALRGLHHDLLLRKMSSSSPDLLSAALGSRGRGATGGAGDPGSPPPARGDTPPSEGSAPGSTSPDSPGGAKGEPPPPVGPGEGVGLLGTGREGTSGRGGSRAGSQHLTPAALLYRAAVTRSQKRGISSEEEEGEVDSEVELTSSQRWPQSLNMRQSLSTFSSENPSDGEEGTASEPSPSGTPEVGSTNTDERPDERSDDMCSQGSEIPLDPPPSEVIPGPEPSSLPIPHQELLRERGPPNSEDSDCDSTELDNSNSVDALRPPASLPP

[11] = molecular target: LIM domain kinase 2 (Homo sapiens) (UniProt P53671)
Chain of LIM domain kinase 2 (Homo sapiens) (P53671 whole entry, looked up, the tested form may be a part): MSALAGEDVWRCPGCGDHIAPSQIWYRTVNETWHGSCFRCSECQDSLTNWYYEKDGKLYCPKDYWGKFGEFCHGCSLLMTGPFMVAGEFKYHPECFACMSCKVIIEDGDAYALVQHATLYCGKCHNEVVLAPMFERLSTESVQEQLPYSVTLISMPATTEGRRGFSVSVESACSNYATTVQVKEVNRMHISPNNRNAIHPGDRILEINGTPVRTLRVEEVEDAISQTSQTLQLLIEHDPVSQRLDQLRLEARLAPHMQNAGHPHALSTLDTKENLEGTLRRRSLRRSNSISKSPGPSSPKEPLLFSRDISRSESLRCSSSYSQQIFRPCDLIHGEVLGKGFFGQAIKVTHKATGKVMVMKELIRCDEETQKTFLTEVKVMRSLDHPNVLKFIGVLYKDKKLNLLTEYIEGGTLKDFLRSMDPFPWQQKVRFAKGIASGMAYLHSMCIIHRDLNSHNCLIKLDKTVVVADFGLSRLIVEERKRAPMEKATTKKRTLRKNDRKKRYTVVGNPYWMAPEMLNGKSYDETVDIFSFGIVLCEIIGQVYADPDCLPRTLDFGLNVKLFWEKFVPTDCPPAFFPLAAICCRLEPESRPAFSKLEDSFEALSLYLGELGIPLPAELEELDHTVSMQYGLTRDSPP

[12] = molecular target: T3, Homeodomain-interacting protein kinase 4 (Homo sapiens) (UniProt Q8NE63)
T3 sequence (whole entry): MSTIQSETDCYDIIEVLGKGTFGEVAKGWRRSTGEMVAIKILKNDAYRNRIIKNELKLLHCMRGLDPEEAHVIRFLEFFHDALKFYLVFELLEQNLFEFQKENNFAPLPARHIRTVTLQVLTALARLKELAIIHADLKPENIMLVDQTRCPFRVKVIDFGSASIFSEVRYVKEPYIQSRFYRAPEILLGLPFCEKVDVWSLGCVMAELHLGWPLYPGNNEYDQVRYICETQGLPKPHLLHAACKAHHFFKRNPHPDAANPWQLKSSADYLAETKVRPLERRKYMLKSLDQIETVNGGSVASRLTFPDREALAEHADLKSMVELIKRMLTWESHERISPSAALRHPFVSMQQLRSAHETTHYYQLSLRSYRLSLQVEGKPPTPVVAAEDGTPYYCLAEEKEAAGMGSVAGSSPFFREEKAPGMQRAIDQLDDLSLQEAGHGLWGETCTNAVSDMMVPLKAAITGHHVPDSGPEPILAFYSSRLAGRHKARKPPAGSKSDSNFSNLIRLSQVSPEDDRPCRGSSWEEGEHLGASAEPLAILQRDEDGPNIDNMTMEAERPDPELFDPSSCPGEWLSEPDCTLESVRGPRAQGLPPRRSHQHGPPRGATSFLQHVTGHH

[13] = molecular target: Homeodomain-interacting protein kinase 1 (Homo sapiens) (UniProt Q86Z02)
Chain of Homeodomain-interacting protein kinase 1 (Homo sapiens) (Q86Z02 whole entry, looked up): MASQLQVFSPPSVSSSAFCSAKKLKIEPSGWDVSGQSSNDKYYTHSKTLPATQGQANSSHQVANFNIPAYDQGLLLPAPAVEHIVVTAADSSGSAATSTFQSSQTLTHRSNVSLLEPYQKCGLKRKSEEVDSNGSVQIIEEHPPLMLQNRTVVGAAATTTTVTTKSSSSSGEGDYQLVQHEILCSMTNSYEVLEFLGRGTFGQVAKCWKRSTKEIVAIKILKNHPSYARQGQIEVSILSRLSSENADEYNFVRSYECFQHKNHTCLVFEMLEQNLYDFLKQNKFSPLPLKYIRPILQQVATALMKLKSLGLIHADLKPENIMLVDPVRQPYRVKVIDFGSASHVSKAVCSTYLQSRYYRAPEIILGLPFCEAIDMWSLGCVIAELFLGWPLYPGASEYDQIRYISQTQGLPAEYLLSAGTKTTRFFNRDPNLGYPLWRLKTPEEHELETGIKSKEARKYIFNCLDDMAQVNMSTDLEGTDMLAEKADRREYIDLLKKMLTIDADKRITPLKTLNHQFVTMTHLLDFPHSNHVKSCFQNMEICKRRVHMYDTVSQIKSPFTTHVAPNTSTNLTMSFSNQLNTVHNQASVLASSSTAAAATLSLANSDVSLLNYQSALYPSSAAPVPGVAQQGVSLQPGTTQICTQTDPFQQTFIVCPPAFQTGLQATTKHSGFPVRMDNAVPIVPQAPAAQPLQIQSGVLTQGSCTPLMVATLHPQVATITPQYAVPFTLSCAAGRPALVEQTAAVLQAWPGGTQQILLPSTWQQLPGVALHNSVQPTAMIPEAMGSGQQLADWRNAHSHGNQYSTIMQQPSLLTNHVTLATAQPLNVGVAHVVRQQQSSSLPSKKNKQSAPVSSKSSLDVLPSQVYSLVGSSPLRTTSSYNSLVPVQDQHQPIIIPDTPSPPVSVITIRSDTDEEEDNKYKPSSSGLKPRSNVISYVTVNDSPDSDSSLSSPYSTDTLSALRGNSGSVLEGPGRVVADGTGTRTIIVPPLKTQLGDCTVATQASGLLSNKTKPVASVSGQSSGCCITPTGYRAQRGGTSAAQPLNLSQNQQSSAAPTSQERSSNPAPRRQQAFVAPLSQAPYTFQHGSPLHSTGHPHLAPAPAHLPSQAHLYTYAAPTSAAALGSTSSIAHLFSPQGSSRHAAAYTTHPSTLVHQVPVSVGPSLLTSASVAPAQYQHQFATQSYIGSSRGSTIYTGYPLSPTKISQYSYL

Measured: residual activity

Chain of Ribosomal protein S6 kinase alpha-6 (Homo sapiens) (Q9UK32 whole entry): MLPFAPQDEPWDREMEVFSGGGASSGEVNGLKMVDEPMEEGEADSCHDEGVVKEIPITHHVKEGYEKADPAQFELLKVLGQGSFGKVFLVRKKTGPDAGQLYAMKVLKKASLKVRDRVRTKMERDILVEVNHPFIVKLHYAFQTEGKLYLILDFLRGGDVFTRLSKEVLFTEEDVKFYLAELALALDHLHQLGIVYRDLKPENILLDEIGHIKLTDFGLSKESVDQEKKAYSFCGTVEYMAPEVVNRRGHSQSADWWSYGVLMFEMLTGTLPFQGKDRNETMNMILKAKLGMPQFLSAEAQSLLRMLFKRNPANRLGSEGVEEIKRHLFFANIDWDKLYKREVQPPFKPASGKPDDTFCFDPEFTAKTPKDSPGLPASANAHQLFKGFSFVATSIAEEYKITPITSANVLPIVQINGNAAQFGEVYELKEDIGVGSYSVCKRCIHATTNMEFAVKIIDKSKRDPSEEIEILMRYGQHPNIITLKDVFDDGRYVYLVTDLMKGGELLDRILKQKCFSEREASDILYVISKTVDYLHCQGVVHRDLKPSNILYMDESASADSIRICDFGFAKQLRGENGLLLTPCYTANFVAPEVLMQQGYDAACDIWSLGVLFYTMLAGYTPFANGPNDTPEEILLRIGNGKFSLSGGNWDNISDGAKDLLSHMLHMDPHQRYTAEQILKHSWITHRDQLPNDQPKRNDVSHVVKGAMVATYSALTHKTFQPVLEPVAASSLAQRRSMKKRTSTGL

Cc1nc(C2CCN(C(=O)c3ccc(OC(F)(F)F)cc3N)CC2)c2ncc(N3CCN(C)CC3)cc2n1 [BAY-693]
inactive: [1] 100% | [2] 100% | [3] 100% | [4] 79% | [5] 100% | [6] 90% | [7] 100% | [8] 100% | [9] 83% | [10] 100% | [11] 95% | [12] 88% | [13] 100%

CN1CCN(c2cnc3c(C4CCN(C(=O)c5ccc(OC(F)(F)F)cc5N)CC4)ncnc3c2)CC1 [BAY-885]
inactive: [1] 100% | [2] 100% | [3] 100% | [4] 89% | [5] 100% | [6] 90% | [7] 90% | [8] 99% | [9] 86% | [10] 100% | [11] 100% | [12] 100% | [13] 99%
